Measurements published in paper PMC6768323, “Adverse Maternal, Fetal, and Postnatal Effects of Hexafluoropropylene Oxide Dimer Acid (GenX) from Oral Gestational Exposure in Sprague-Dawley Rats” (Environmental Health Perspectives, 2019).

Tested on: estrogen (ER) receptor
Test: ER transcriptional activation, T47D-KBluc cells
Type: cell-based
Details: 100 pM to 10 μM
Experimental: HFPO-DA was assessed for agonism and antagonism of transcriptional activation for estrogen (ER), androgen (AR), and glucocorticoid receptors (GR). Method details for in vitro transactivation assays for ER ([Wilson et al. 2004a]), AR ([Hartig et al. 2002], [2007]), and GR ([Conley et al. 2017]; [Medlock Kakaley et al. 2018]) have been previously reported. Briefly, for ER activity we utilized the stably transfected T47D-KBluc cell line [publicly available via American Type Culture Collection (ATCC); CRL-2865] according to protocols provided by ATCC with the modification of Dulbecco’s Modified Eagle Media (DMEM) as the cell culture media instead of Roswell Park Memorial Institute (RPMI) media. […] All assays were run in 96-well plates and luminescence was detected using a BMG Fluostar Omega luminometer (BMG Labtech) following 24-h exposure. […] Cellular cytotoxicity across the dosing range was determined for CV-1 cells utilizing the 3-(4,5-dimethylthiazol-2-yl)-2,5-diphenyltetrazolium bromide (MTT) dye ([Mosmann 1983]). HFPO-DA was analyzed using n=2–3 biological replicate assay plates (i.e., unique cell passages) with four technical replicates per treatment per plate. […]

**Q.** Which “estrogenic activity (agonism or antagonism)” value does the source give for `O=C(O)C(F)(OC(F)(F)C(F)(F)C(F)(F)F)C(F)(F)F` (stereo not shown) [HFPO-DA, Hexafluoropropylene oxide dimer acid] here?
**A.** The value was “did not display any estrogenic activity”.
